Structures are written as SMILES. Where two headings read alike, the source gives them in different places.

Here are results for 2 molecules from US11672792B2, “Topical formulations comprising montelukast and combinations with mussel adhesive proteins” (ENLITISA (SHANGHAI) PHARMACEUTICAL CO., LTD, priority 2017, dated 2023).

One data set relates to burn wounds. The data set can be described thus: Burn Injury Model (Example 3). The class given is in vivo, Sprague-Dawley rats. The settings on record: per wound: dexamethasone 0.4 mg, MAP 0.25 mg, montelukast 0.25 mg, once daily topically. On the procedure:
Healthy adult male Sprague-Dawley rats weighing between 200 and 300 g were supplied by Beijing Vital River Laboratory Animal Technology Co. Ltd, Beijing, China.
Prior to any experiments being conducted, rats were housed under standardized conditions (at a constant temperature or 22 t 2° C., with alternating 12 hour periods of light and darkness) and were fed on a standard rat diet with water.
Rats were anaesthetised with 3% chloral hydrate (Sinopharm Chemical Reagent Co., Ltd., Shanghai, China) (1 mL/100 g of body weight) administered by intraperitoneal injection. The dorsal trunk was of each rat was shaved with an electric razor and surgically prepared with 70% alcohol scrubs. A constant temperature and constant pressure scald instrument (YLS-5Q, Shandong Academy of Medical Sciences, China) was employed, as this allows for a precise measurement of pressure applied to the skin surface. Thermal injury was induced by heating a stylus (with a surface area of 4 cm^2) to 80° C. and applying the stylus to the surface of the skin for a contact time of 18 seconds. 500 grams of pressure was applied during the operation. In this way, four two-degree shallow to deep burn wounds were created on each rat. Test compounds or vehicle were applied to the surface of the wound.
Rats were kept in separate cages but were allowed to move freely throughout the test period. In the first treatment, 500 μL of the relevant solutions was applied about 3 to 4 hours after the surgery (Day 0) and then once daily for the next 7 days. Gross appearances of the scald wounds were observed every day. Photographs were taken at 48 hours (Day 2), and on the 4th (Day 4) and 7th (Day 7) days with a digital camera to compare wound healing. The skin lesions were evaluated for the following criteria: blistering, swelling, redness, crust, bleeding, secretion, granulation tissue and scar tissue. The degree of healing was expressed as the wound contraction ratio (WCR): WCR=(A0−At)/A0×100% in which A0 and At refer to the initial area and the wound area at time t, respectively.
On Days 2, 4 and 7 after application of the burn, two rats were sacrificed and the burned skins excised. The freshly isolated skin was fixed in 10% neutral buffered formalin (which contained 4% of formaldehyde). This was used for histological embedding, staining and immunohistochemical studies.
Administered solutions were made up substantially as described in Example 1 above.
Burn scores are shown in Table 12 below and are illustrated in FIG. 3. Skin samples were sent to the Department of Pathology of Nanjing Hospital of Chinese Medicine, China. Samples were fixed and embedded, and histological sections were cut and stained. The stained sections were examined under a light microscope and pictures were taken. All pictures were interpreted and scored according to the following criteria: first degree—the epidermis was damaged and the substrate remains intact (score 1 point); superficial second degree—the epidermis was completely damaged and the papillary layer was damaged (1.5 points): deep second degree—the dermis was injured into the reticular layer and retain some dermis (2.5 points); and third degree—the dermis was completely damaged and the muscles and/or bones affected (3 points).

Data set [1] relates to full thickness skin wounds in diabetic mice. The data set can be described thus: Diabetic Wound Model (Example 7). Conditions: Day 6, Mon 100 μg/each. In kind it is in vivo, db/db mice (C57BL/KsJ-db/db). The protocol: A similar experiment with essentially the same protocol to that described in Example 6 above was carried out on 8 to 12 week-old male db/db mice (C57BL/KsJ-db/db, with a body weight of 35-45 g/mouse; supplied by Changzhou Cvens Experimental Animal Co. Ltd.).
An EMS skin biopsy punch with a […] diameter was used to make wounds.
Different drugs were administrated topically at 20 μL/wound, once daily from Day 0 to Day 18. The model group was given same amount of normal saline.
Samples were taken on Day 6, Day 12 and Day 18 post-wound inflictions.
Histological specimens were analyzed and skin regeneration, fibroblast proliferation, collagen regeneration scores (Masson score) and inflammation scores were estimated as follows.
The HE and Masson stained slices were observed under an optical microscope and were scored (1, 2 or 3 points) according to the following criteria. […]
Fibroblast proliferation was scored as the following criteria:
Inflammation was scored as the following criteria:
Collagen deposition score criterion for the Masson stained sample were as follows. […] No clear blue staining was given 0 points; blue fiber appearing in a scattered pattern was scored as 1 points; if more blue fiber appeared, this was scored as 2 points, and a diffuse blue colour was given 3 points.

A short description of the next data set: in vivo. The settings on record: Sprague Dawley, rat, skin (unscalded intact, full thickness), topical, 1 g montelukast cream.
The conditions of data set [2]: for Montelukast amount in skin sample: unscalded intact skin.

With `C[C@@H]1C[C@H]2[C@@H]3CCC4=CC(=O)C=C[C@]4(C)[C@@]3(F)[C@@H](O)C[C@]2(C)[C@@]1(O)C(=O)CO` [Dexamethasone, dexamethasone], the Burn score in the data set with burn wounds (Day 2) turned out to be 2.25; in the data set on burn wounds (Day 4), 2.64; in the data set on burn wounds (Day 7), 2.50.
For `CC(C)(O)c1ccccc1CC[C@@H](SCC1(CC(=O)O)CC1)c1cccc(/C=C/c2ccc3ccc(Cl)cc3n2)c1` [Mon, Montelukast sodium], the “increase of VEGF production in the wounded tissue in comparison with model group” value in data set [1] is “about 74%”. For the same molecule, the “VEGF content, Mean” value in data set [1] (wound tissue, rhEGF 100 IU/each, once daily topically) amounted to 5.47 pg/g. In “in vivo”, the concentration at 0 h worked out at 0 ng/g. In “in vivo”, this molecule showed a concentration at 1 h of 36700 ng/g. The same molecule yielded a concentration at 2 h in “in vivo” of 68000 ng/g. The same molecule came in with a concentration at 3 h in the data set “in vivo” of 13400 ng/g. The molecule further had a concentration at 6 h in “in vivo” of 15600 ng/g. Further, the concentration at 8 h in the data set “in vivo” came to 55300 ng/g. The Burn score turned out to be 1.50 with burn wounds (Day 2), 2.38 with burn wounds (Day 4) and 2.00 in the data set on burn wounds (Day 7). Further, the “Montelukast amount in skin sample” value in data set [2] (0 h, 1 g montelukast cream topically) worked out at 0 g; in data set [2] (1 h), 2.53 g; in data set [2] (2 h) it was 5.44 g; in data set [2] (3 h), 0.89 g; in data set [2] (6 h), 0.90 g; in data set [2] (8 h), 3.54 g. Besides, in data set [2] (scalded skin), the “time of montelukast peak in skin” value worked out at 2 h.
